Data: patent publication US12012411B2, “Viral replication inhibitors” (Katholieke Universiteit Leuven, priority 2011, dated 2024)

Legend:
[1] = test system: DENV-2 NGC; assay: Antiviral activity against DENV-2 NGC in Vero-B cells (viral RNA load by RT-qPCR); format: cell-based, Dengue virus; settings: Dengue virus, DENV2, Vero B, DENV-2 in Vero-B cells; inhibition of viral RNA replication by 50% (Table 3)
[2] = in vitro; settings: African green monkey, uninfected quiescent Vero-B cells

SMILES	EC50 [1]	CC50 at 4 days [2]
CCOc1cccc(NC(C(=O)c2c[nH]c3ccccc23)c2ccccc2)c1 (stereo not shown) [CPD-003]	0.11 µM	13 µM
O=C(c1c[nH]c2ccccc12)C(Nc1cccc(Cl)c1)c1ccccc1 (stereo not shown) [CPD-006]	0.75 µM	6 µM
O=C(c1c[nH]c2ccccc12)C(Nc1ccc(F)c(F)c1)c1ccccc1 (stereo not shown) [CPD-007]	2.53 µM	5 µM
O=C(c1c[nH]c2ccccc12)C(Nc1cccc(C(F)(F)F)c1)c1ccccc1 (stereo not shown) [CPD-009]	0.66 µM	4 µM
COc1cc(NC(C(=O)c2c[nH]c3ccccc23)c2ccccc2)cc(C(F)(F)F)c1 (stereo not shown) [CPD-014]	0.02 µM	8 µM
COc1cccc(N(C)C(C(=O)c2c[nH]c3ccccc23)c2ccccc2)c1 (stereo not shown) [CPD-018]	0.37 µM	19 µM
Cc1cc(NC(C(=O)c2c[nH]c3ccccc23)c2ccccc2)no1 (stereo not shown) [CPD-022]	12.8 µM	77 µM
COc1cccc(NC(C(=O)c2c[nH]c3ccccc23)c2cccs2)c1 (stereo not shown) [CPD-024]	0.5 µM	14 µM
COc1cccc(NC(C(=O)c2c[nH]c3ccccc23)c2nccn2C)c1 (stereo not shown) [CPD-026]	17.2 µM	> 138 µM
COc1cccc(NC(C(=O)c2c[nH]c3ccccc23)c2ncc[nH]2)c1 (stereo not shown) [CPD-028]	135 µM	> 144 µM
O=C(c1c[nH]c2ccccc12)C(Nc1ccnc(O)c1)c1ccccc1 (stereo not shown) [CPD-031]	50.2 µM	> 145 µM
O=C(c1c[nH]c2ccccc12)C(NCc1ccccn1)c1ccccc1 (stereo not shown) [CPD-032]	55.5 µM	> 146 µM
O=C(c1c[nH]c2ccccc12)C(NCc1cccs1)c1ccccc1 (stereo not shown) [CPD-033]	9.15 µM	71 µM
O=C(c1c[nH]c2ccccc12)C(NCc1ccco1)c1ccccc1 (stereo not shown) [CPD-034]	46.5 µM	> 151 µM
COc1cccc(NC(C(=O)c2c[nH]c3ccccc23)c2cccc(C#N)c2)c1 (stereo not shown) [CPD-041]	0.5 µM	14 µM
COc1cccc(NC(C(=O)c2c[nH]c3ccccc23)c2cnn(C)c2)c1 (stereo not shown) [CPD-042]	12.5 µM	> 138 µM
CCc1cccc(NC(C(=O)c2c[nH]c3ccccc23)c2ccccc2)c1 (stereo not shown) [CPD-046]	0.65 µM	17 µM
COc1cccc(NC(C(=O)c2c[nH]c3ccccc23)c2cccc3cnccc23)c1 (stereo not shown) [CPD-047]	0.42 µM	16 µM
COc1cccc(NC(C(=O)c2c[nH]c3ccccc23)c2ccc(-c3cncnc3)cc2)c1 (stereo not shown) [CPD-048]	2.09 µM	> 115 µM
O=C(c1c[nH]c2ccccc12)C(Nc1ccc2nccnc2c1)c1ccccc1 (stereo not shown) [CPD-050]	2.4 µM	87 µM
CNS(=O)(=O)c1cccc(NC(C(=O)c2c[nH]c3ccccc23)c2ccccc2)c1 (stereo not shown) [CPD-052]	3.72 µM	52 µM
COc1cccc(NC(C(=O)c2c[nH]c3ccccc23)c2cccc(-c3cncnc3)c2)c1 (stereo not shown) [CPD-054]	2.09 µM	> 115 µM
O=C(c1c[nH]c2ccccc12)C(Nc1cccc(-n2cncn2)c1)c1ccccc1 (stereo not shown) [CPD-058]	2.85 µM	64 µM
O=C(c1c[nH]c2ccccc12)C(Nc1cccc(-c2cnco2)c1)c1ccccc1 (stereo not shown) [CPD-059]	1.25 µM	16 µM
COc1cccc(NC(C(=O)c2c[nH]c3ccccc23)c2ccc3c(c2)n(C)c(=O)n3C)c1 (stereo not shown) [CPD-060]	10.3 µM	> 113 µM
COc1cc(NC(C(=O)c2c[nH]c3ccccc23)c2ccc(C#N)cc2)ccn1 (stereo not shown) [CPD-061]	1.71 µM	59 µM
